Measurements as given in paper PMC4205289, “Triptolide inhibits human immunodeficiency virus type 1 replication by promoting proteasomal degradation of Tat protein” (Retrovirology, 2014).
“Also recorded” adds a separate entry of the source. Where two headings read alike, the source gives them in different places.

Legend:
[1] = tested on: Tat-induced HIV-1 LTR activation; test: HIV-1 LTR-luciferase reporter assay, Tat-induced, Jurkat cells; type: cell-based; settings: 48 h
Description: Jurkat cells were seeded in 24-well plates at a density of 2 × 10^5 cells per well. For TNF-α induction, cells were co-transfected with pLTR-Luc and pRL-TK in the presence or absence of the test compounds. Then, the cells were treated with 10 ng/mL TNF-α 36 h post-transfection. After induction for an additional 12 h, luciferase activity was analyzed. For Tat-induced LTR activation, Jurkat cells were co-transfected with pLTR-Luc (or pLTR-Luc-ΔkB), pEF1-Tat and pRL-TK, and cultured in the presence of various concentrations of test compounds for an additional 48 h before the determination of luciferase activity. Luciferase levels were expressed relative to levels in cells without induction.

CDK9 = test: Western blot of endogenous protein in HeLa cells; type: cell-based; settings: in the presence of triptolide, Western blotting
Description: (§1) (A) HeLa cells were transfected with pEF1-FLAG-Tat in the presence of increasing concentrations of triptolide. Cells were harvested 48 h post-transfection, and protein expression levels were determined by Western blotting. (B) HeLa cells were transfected either with pEF1-GFP (left) or pEF1-Tat-GFP (right) in the presence of increasing concentrations of triptolide. Cells were harvested 48 h post-transfection, and protein expression levels were determined by Western blotting.
(§2) Cells were washed with phosphate buffered saline (PBS) and lysed with radio immunoprecipitation assay lysis buffer supplemented with complete mini protease inhibitor cocktail (Roche) at 4°C for 1 h. Proteins from cell lysates were separated by SDS-PAGE and transferred to polyvinylidene difluoride membranes. After overnight incubation with primary antibodies at 4°C, each blot was probed with horseradish peroxidase-conjugated secondary antibody. Immunoreactive signals were detected with an enhanced chemiluminescence substrate (Thermo Scientific) using an AlphaEaseH FC Imaging System (Alpha Innotech Corporation).

cyclin T1 = test: Western blot of endogenous protein in HeLa cells; type: cell-based; settings: in the presence of triptolide, Western blotting
Description: as §1, §2

[2] = tested on: TNF-α-induced HIV-1 LTR activation; test: HIV-1 LTR-luciferase reporter assay, TNF-α-induced, TZM-bl cells; type: cell-based; settings: TNF-α 10 ng/mL, 24 h
Description: The effect of the test compounds on HIV-1 LTR promoter activity was evaluated using the luciferase reporter systems in both TZM-bl and Jurkat cells. TZM-bl cells seeded in 96-well plates (2 × 10^4 cells/well) were treated with either 10 ng/mL TNF-α (Sigma-Aldrich) or co-transfected with pEF1-Tat and pRL-TK (for transfection efficiency normalization) using Lipofectamine 2000 (Invitrogen). The cells were then cultured in the presence of various concentrations of the test compounds. After 24 h (TNF-α stimulation) or 48 h (Tat transfection) of incubation, luciferase activity was determined from cell lysates using the StedyGlo reagent (for TNF-α treated cells) or a dual luciferase assay system (Promega, for transfected cells) as recommended by the manufacturer.

HIV-1 BaL = test: PBMC antiviral assay, p24 ELISA; type: cell-based; settings: for EC50: Human immunodeficiency virus 1, BAL, PBMC, 144 h, p24, day 6 post-infection; for selectivity ratio at 6 days: human, read-out: SI (selective index, CC50/EC50)
HIV-1 NL4-3 = test: microbe, parasite or virus in culture; type: cell-based
Description: The anti-HIV-1 activities of compounds were evaluated in a variety of assays, including the TZM-bl assay, reporter virus assay, and PBMCs-based antiviral assay. In the TZM-bl assay, TZM-bl cells were plated at a density of 1 × 10^4 cells per well in 96-well tissue culture plates one day before infection. On the day of the experiment, the cell supernatant was removed, and 100 μL of each serially diluted compounds was added were added. HIV-1 NL4-3 in 50 μL of complete medium was then added to each well to achieve a multiplicity of infection (MOI) of 0.5. At 48 h post-infection, the luciferase activity in the cells was analyzed with the SteadyGlo reagent (Promega) according to manufacturer’s instructions. The luminescent signal was measured using the EnVison 2102 Multilabel Reader (Perkin Elmer).

Tat protein [3] = test: Western blot of Tat steady-state level in transfected HeLa cells; type: cell-based, HIV-1 NL4-3
Description: as §1, §2

Tat protein [4] = tested on: T1, Tat protein; test: as above; type: cell-based, HIV-1 NL4-3
T1 construct: expressed in transfected cells; host or cells: HeLa
Description: as §1, §2

HIV-1 proviral DNA = test: Nested PCR of integrated proviral DNA in infected Jurkat cells; type: cell-based; settings: HIV-1 NL4-3 MOI 0.5, 12 h post-infection, 118-D-24 50 μM, flavopiridol 20 nM, triptolide 5 nM
Description: The effects of the test compounds on HIV-1 proviral DNA and mRNA synthesis were analyzed by PCR. Jurkat cells were grown in 24-well plates and infected with the HIV-1 NL4-3 strain at an MOI of 0.5, and then test compounds were added at the desired concentrations. After incubation for 12 h, genomic DNA and mRNA from the infected cells were isolated using a Genomic DNA Mini Preparation Kit (Beyotime, China) and TRIzol reagent (Invitrogen Life Technologies), respectively. Nested PCR was used for the amplification of integrated proviral DNA, as previously described. To determine viral mRNA expression levels, 1 μg of RNA was treated with RQ1 RNase-Free DNase (Promega) and reverse transcribed using M-MLV Reverse Transcriptase (Promega) and random primers (Promega). An aliquot of cDNA was used as template for amplification of the HIV-1 Gag region as described elsewhere. […]
All of the PCR products were visualized on a UV transilluminator in 2% agarose gels stained with ethidium bromide. In preliminary experiments, the exponential range of the PCR amplification curve was determined for all of the PCR products by varying the amount of input DNA and the number of PCR cycles. Based on these experiments, appropriate conditions were chosen to perform semi-quantitative PCRs.

## CC(C)[C@]12O[C@H]1[C@@H]1O[C@]13[C@]1(O[C@H]1C[C@H]1C4=C(CC[C@@]13C)C(=O)OC4)[C@@H]2O [triptolide]
[1]; co-transfection with pEF1-Tat
  effect on Tat-induced gene expression (pLTR-Luc): inhibitory effect
[1]; pLTRΔκB-Luc
  effect on Tat-mediated LTR activation, LTR with two mutated NF-κB binding sites: reduced the Tat-mediated LTR activation
CDK9
  expression level of endogenous CDK9: remained unchanged
Cyclin T1
  expression level of endogenous cyclin T1: remained unchanged
[2]
  effect on TNF-α-induced luciferase production: slightly enhance TNF-α-induced luciferase production; also recorded: not active
HIV-1 BaL; PBMC donor A
  EC50: 1.4 nM
  selectivity ratio at 6 days: 9
HIV-1 BaL; PBMC donor B
  EC50: 1.6 nM
  selectivity ratio at 6 days: 9.6
HIV-1 BaL; PBMC donor C
  EC50: 1 nM
  selectivity ratio at 6 days: 11.2
HIV-1 NL4-3; Human immunodeficiency virus 1, NL43, HIV-1 NL4-3, TZM-bl, luciferase, MOI 0.5, 48 h post-infection
  EC50: 0.32 nM
HIV-1 NL4-3; at 5 nM, TZM-bl, HIV-1 NL4-3
  reduction of luciferase expression: 97.9%
HIV-1 NL4-3; human, HIV-1 NL4-3, TZM-bl, read-out: SI (selective index, CC50/EC50)
  selectivity ratio at 48 h: 79.4
Tat protein [3]; FLAG-tagged deletion mutants, 48 h
  effect on steady-state level of Tat mutants with deletion of acidic, cysteine or core region: completely aborted the activity of triptolide
Tat protein [3]; NES from HIV-1 Rev fused to C-terminus of Tat
  steady level of FLAG-Tat-NES: remained unchanged
Tat protein [3]; basic domain replaced with NLS from SFV capsid
  FLAG-Tat-SFV expression: dose-dependently reduced
Tat protein [4]; 5 nM triptolide, nuclear/cytoplasmic fractionation, 48 h
  action on nuclear versus cytoplasmic Tat Δ49–57: only acted on Tat protein accumulated in nucleus
Tat protein [4]; FLAG-Tat Δ49–57, 48 h
  effect on Tat mutant with deletion of basic region: partially attenuated
Tat protein [4]; pEF1-FLAG-Tat, 48 h post-transfection, Western blotting
  steady-state level of Tat protein: reduced by triptolide in a dose-dependent manner
HIV-1 proviral DNA
  effect on proviral DNA formation (integration): no effect on virus integration
